Assay results as given in PMC3320615, “β-Microseminoprotein Endows Post Coital Seminal Plasma with Potent Candidacidal Activity by a Calcium- and pH-Dependent Mechanism” (PLoS Pathogens, 2012).

Key:
erythrocytes = experiment: Lysis of erythrocytes; assay type: cell-based, human; details: 100 µM; 1 ½ hour; absorbance at 550 nm; vs 2% Triton-X100
Procedure: (§1) The cytotoxicity of MSP was evaluated by the ability of 100 µM MSP66–76 or MSP66–76E/Q to cause LDH release from HaCaT cells and lysis of erythrocytes.
(§2) Supplementary file ppat.1002625.s006.tif: Table S1 Cytoxic and hemolytic Effect of MSP66–76E/Q and MSP66–76. HaCaT cells were treated with 100 µM of MSP66–76E/Q and MSP66–76 over night. The release of LDH was subsequently determined by colorimetric assay and depicted as percent of LDH release of cells treated with 2% Triton- X100. Erythrocytes were treated for 1 ½ hour with 100 µM of MSP66–76E/Q and MSP66–76 followed by centrifugation. Lysis was determined by measuring hemoglobin in the supernatant by measuring the absorbance at 550 nm. Results are depicted as % of lysis compared to lysis obtained by 2% Triton-X100. (TIF) Click here for additional data file.

[1] = test system: Candida albicans ATCC 90028; experiment: CFU assay with C. albicans; assay type: cell-based; details: for Estimate (difference between means of log values): control - treatment, pH 4
Source text: Candida albicans strains: ATCC 90028, CAF-1-2, SC5814, BM4f35II68, vaginal clinical isolates from Dept. of Clincal Microbiology, Skåne University Hospital, SO_303369 and SO_503471. Candida parapsilosis strains: ATCC 90018, BD1800, BD17837, and BM24/68/09. Candida glabrata strains: ATCC 90030, clinical isolates from Dept. of Clincal Microbiology, Skåne University Hospital, SO_3336, SO_3400 and SO_503413. All strains were inoculated from frozen culture and grown in Yeast extract-Peptone-Dextrose (YPD) (Sigma) and on Sabourand Dextrose Broth (SAB) (Difco) plates at 30°C with 5% (v/v) CO2. If not otherwise stated, ATCC 90028 was used for candidacidal experiments.
(§3) Candida albicans was grown over night, washed, and resuspended in 10 mM Tris, 5 mM glucose, pH 7.4 or pH 4. Approximately 4×10^3 to 10^4 CFU of C. albicans were incubated with the test substance in low or neutral pH buffer for 4 h at 37°C. After incubation, the suspension was diluted and plated. Colonies were counted after two days incubation of the plates at 30°C. Bacteria from overnight cultures were inoculated in fresh medium and grown for 3 h, washed in 10 mM Tris, 5 mM glucose pH 7.4. Approximately 8×10^4 CFU were incubated with sample in 10 mM Tris, 5 mM glucose pH 7.4 or pH 4 for 1 h at 37°C, diluted, plated and incubated over night at 37°C and the colonies counted.
Statistical analysis was performed using SAS 9.2 software (SAS Institute, Cary, NC). Colony counts were log transformed. In order to choose the statistical method, interactions between the Treatment and Experiment were investigated. Treatments were screened by doing pair wise comparisons of each treatment to a control. Statistical tests used for the comparisons included MIXED procedure and LSMEANS statement. All tests where P-value<.05 were considered to indicate statistical significance. P-values were not adjusted for the multiple comparisons.
“Estimate” is the estimate of the difference between means of log values of treatment 1 and treatment 2

HaCaT cells = experiment: LDH release from HaCaT cells; assay type: cell-based, human; details: 100 µM; over night; colorimetric; vs 2% Triton-X100
Procedure: as §1, §2

S. agalactiae (SB1) = experiment: Antibacterial CFU assay; assay type: cell-based; details: purified MSP 10 µM + 20 µM EDTA or recombinant dialyzed MSP 10 µM + 10 µM EDTA; neutral pH; data not shown
Procedure: as §3, with “E. coli (strain 37.4), S. aureus (strain 5120), S. pyogenes (M5 Manfredo), S. agalactiae (SB1), and E. faecalis (strain 2374) were grown in THY medium (Todd Hewitt with addition of yeast) and on THY agar plates at 37°C with 5% (v/v) CO2. Candida” for “Candida”

E. coli (strain 37.4) = experiment: Antibacterial CFU assay; assay type: cell-based; details: purified MSP 10 µM + 20 µM EDTA or recombinant dialyzed MSP 10 µM + 10 µM EDTA; low and neutral pH; data not shown
Procedure: as §3, with “E. coli (strain 37.4), S. aureus (strain 5120), S. pyogenes (M5 Manfredo), S. agalactiae (SB1), and E. faecalis (strain 2374) were grown in THY medium (Todd Hewitt with addition of yeast) and on THY agar plates at 37°C with 5% (v/v) CO2. Candida” for “Candida”

S. aureus (strain 5120) = experiment: Antibacterial CFU assay; assay type: cell-based; details: purified MSP 10 µM + 20 µM EDTA or recombinant dialyzed MSP 10 µM + 10 µM EDTA; neutral pH; data not shown
Procedure: as §3, with “E. coli (strain 37.4), S. aureus (strain 5120), S. pyogenes (M5 Manfredo), S. agalactiae (SB1), and E. faecalis (strain 2374) were grown in THY medium (Todd Hewitt with addition of yeast) and on THY agar plates at 37°C with 5% (v/v) CO2. Candida” for “Candida”

[2] = test system: E. faecalis (strain 2374); experiment: Antibacterial CFU assay; assay type: cell-based; details: purified MSP 10 µM + 20 µM EDTA or recombinant dialyzed MSP 10 µM + 10 µM EDTA; low and neutral pH; data not shown
Procedure: as §3, with “E. coli (strain 37.4), S. aureus (strain 5120), S. pyogenes (M5 Manfredo), S. agalactiae (SB1), and E. faecalis (strain 2374) were grown in THY medium (Todd Hewitt with addition of yeast) and on THY agar plates at 37°C with 5% (v/v) CO2. Candida” for “Candida”

[3] = test system: S. pyogenes (M5 Manfredo); experiment: Antibacterial CFU assay; assay type: cell-based; details: purified MSP 10 µM + 20 µM EDTA or recombinant dialyzed MSP 10 µM + 10 µM EDTA; neutral pH; data not shown
Procedure: as §3, with “E. coli (strain 37.4), S. aureus (strain 5120), S. pyogenes (M5 Manfredo), S. agalactiae (SB1), and E. faecalis (strain 2374) were grown in THY medium (Todd Hewitt with addition of yeast) and on THY agar plates at 37°C with 5% (v/v) CO2. Candida” for “Candida”

C. albicans = experiment: Antifungal gel overlay assay (AU-PAGE); assay type: cell-based, Candida albicans
Procedure: Gel overlay assay was performed essentially as described. Briefly, duplicate samples were run on native Acid Urea (AU-PAGE) gels in 5% (v/v) acetic acid at 100 V for 1 h 20 min. Candida albicans was grown over night, washed and resuspended in 10 mM NaPO4 pH 7.4 and approximately 1×10^5 CFU were added to 12 ml melted underlay agarose (10 mM NaPO4, pH 7.4, 0.03% SAB, 1% agarose type 1 (Sigma, St. Louis, MO)) and poured into a square Petri dish. One AU-gel was stained with Coomassie brilliant blue and one AU gel was washed 3×4 min in 10 mM NaPO4, pH 7.4 and then placed on top of the agarose and incubated for 4 h at 37°C. The AU gel was then removed and an overlay agarose (6% SAB, 1% agarosetype 1 (Sigma)) was poured on top of the underlay and incubated over night at 30°C. To make the clearing zones more visible, the agarose was stained with Coomassie brilliant blue followed by destaining.

Molecule	Lysis of erythrocytes (erythrocytes)	Effect of 0.5 mM calcium on antifungal activity ([1]; acidic pH, Figure S2)	Estimate (difference between means of log values) ([1]; 140 µM + 0.5 mM calcium, experiment 1)	Estimate (difference between means of log values) ([1]; 140 µM + 0.5 mM calcium, experiment 2)	Estimate (difference between means of log values) ([1]; 140 µM + 0.5 mM calcium, experiment 3)	Estimate (difference between means of log values) ([1]; 140 µM + 0.5 mM magnesium, experiment 1)	Estimate (difference between means of log values) ([1]; 140 µM + 0.5 mM magnesium, experiment 2)	Estimate (difference between means of log values) ([1]; 140 µM + 0.5 mM magnesium, experiment 3)	Estimate (difference between means of log values) ([1]; 140 µM, experiment 1)	Estimate (difference between means of log values) ([1]; 140 µM, experiment 2)	Estimate (difference between means of log values) ([1]; 140 µM, experiment 3)	Calcium concentration inhibiting the antifungal activity ([1]; neutral pH, Figure S2) [µM]	LDH release from HaCaT cells (HaCaT cells)	Antibacterial activity in CFU assay (S. agalactiae (SB1))	Antibacterial activity in CFU assay (E. coli (strain 37.4))	Antibacterial activity in CFU assay (S. aureus (strain 5120))	Antibacterial activity in CFU assay [2]	Antibacterial activity in CFU assay [3]	Fungicidal activity in CFU assay ([1]; native MSP 10 µM + 20 µM EDTA or recombinant dialyzed MSP 10 µM + 10 µM EDTA)	Clearing zone in antifungal gel overlay assay (C. albicans)
RIFKKQDCKYI [MSP66–76E/Q, mutated form of MSP66–76 where E71 was substituted with a glutamine]	No significant LDH release or lysis	not inhibited	3.1854	2.1182	2.6879	4.0137	1.7951	4.5634	5.3523	5.6354	5.8836	50 to 100	No significant LDH release	–	–	–	–	–	–	–
recombinant MSP: Recombinant human β-microseminoprotein from R&D Systems (protein) SCYFIPNEGVPGDSTRKCMDLKGNKHPINSEWQTDNCETCTCYETEISCCTLVSTPVGYDKDNCQRIFKKEDCKYIVVEKKDPKKTCSVSEWII	–	–	–	–	–	–	–	–	–	–	–	–	–	no antibacterial activity	no antibacterial activity	no antibacterial activity	no antibacterial activity	no antibacterial activity	prominent fungicidal activity	displayed antifungal activity by producing a clearing zone
